Results reported in patent publication EP1683523A1, “2-Phenylquinoxalines as inhibitors for MPP1” (MAX-PLANCK-GESELLSCHAFT ZUR FÖRDERUNG DER WISSENSCHAFTEN …, priority 2005, dated 2006).

Tests used:
Hela S3 cells = test: Cellular phenotype: binucleate phenotype; type: cell-based; details: Fig. 3
[1] = tested on: cellular processes known to be independent of MPP1 function; test: Specificity in vivo: effect on cellular processes independent of MPP1; type: cell-based; details: golgi/lysosome localization, actin/microtubule cytoskeleton in interphase, protein synthesis, S to M-phase cell cycle progression, wound healing
Excerpt: For the specificity in vivo studies, the effect of 5-chloro-2-(3,4-dichlorophenyl)-7-(trifluoromethyl)quinoxaline on cellular processes known to be independent of MPP1 function, e.g. golgi/lysosome localization, actin/microtubule cytoskeleton in interphase, protein synthesis, S to M-phase cell cycle progression, and wound healing was investigated.

[2] = target: T1, His-tagged human MPP1 construct (Aa 1-533) (Homo sapiens, UniProt Q96Q89); test: Malachite-green based in vitro microtubule-stimulated ATPase assay (potency study); type: biochemical; details: microtubule-stimulated ATPase activity, DMSO as solvent control, Fig. 1
T1 construct: a His-tagged human MPP1 construct (Aa 1-533); His
T1 sequence (Q96Q89 1-533): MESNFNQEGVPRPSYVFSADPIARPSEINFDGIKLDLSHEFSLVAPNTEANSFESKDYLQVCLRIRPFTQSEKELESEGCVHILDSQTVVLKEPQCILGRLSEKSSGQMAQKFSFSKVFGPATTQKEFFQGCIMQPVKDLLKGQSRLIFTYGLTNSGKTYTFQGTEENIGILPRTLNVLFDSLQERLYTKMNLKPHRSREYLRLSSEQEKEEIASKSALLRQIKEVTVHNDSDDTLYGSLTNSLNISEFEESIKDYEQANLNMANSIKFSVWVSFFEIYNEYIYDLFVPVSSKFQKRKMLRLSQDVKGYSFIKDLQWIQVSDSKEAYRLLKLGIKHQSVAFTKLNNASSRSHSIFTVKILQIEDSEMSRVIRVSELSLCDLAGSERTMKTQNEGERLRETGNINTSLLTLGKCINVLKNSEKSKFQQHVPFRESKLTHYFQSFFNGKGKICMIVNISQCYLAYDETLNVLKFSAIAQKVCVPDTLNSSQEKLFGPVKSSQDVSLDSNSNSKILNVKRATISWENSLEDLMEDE
Protocol: The 2-phenylquinoxaline derivatives were measured be means of a malachite-green based (Itaya K. and UI, M. (1966), A new micromethod for the colorimetric determination of inorganic phosphate; Clin. Chim. Acta, 14: 362 - 366) in vitro ATPase assay. For this assay the microtubule-stimulated ATPase activity of a His-tagged human MPP1 construct (Aa 1-533) in the presence of small molecules or DMSO as a solvent control were measured. These studies are done in 384-well plates in which individual compounds of a large compound collection are transferred into each well using a liquid handling robot.
The potency of 5-chloro-2-(3,4-dichlorophenyl)-7-(trifluoromethyl)quinoxaline as a representative example of the 2-phenylquinoxaline derivatives of general formula (I) was determined by measuring MPP1's microtubule-stimulated ATPase activity in vitro in the presence of 5-chloro-2-(3,4-dichlorophenyl)-7-(trifluoromethyl)-quinoxaline or DMSO as a solvent control. For these studies a malachite green assay which allows the quantification of free phosphate (Pi) in solution was used.

[3] = tested on: BSC-1 (African green monkey) cells; test: Cellular phenotype: count of binucleated cells; type: cell-based; details: Chlorocebus sabaeus; synchronized BSC-1 cells, released from thymidine-block for three hours, treated for 18 hours; at least 200 cells counted per concentration; read-out: EC50, induction of a binucleate phenotype in BSC-1
Protocol: Concerning the study the function of MPP1 in living cells, it was tested whether 5-chloro-2-(3,4-dichlorophenyl)-7-(trifluoromethyl)quinoxaline induces a phenotype similar to the one obtained by RNAi-mediated depletion of MPP1. For these studies we treated synchronized BSC-1 (African green monkey) cells with 5-chloro-2-(3,4-dichlorophenyl)-7-(trifluoromethyl)quinoxaline or DMSO as a solvent control.
BSC-1 cells were released from thymidine-block for three hours and then treated with 50µM or the indicated concentrations of 5-chloro-2-(3,4-dichlorophenyl)-7-(trifluoromethyl)quinoxaline for 18 hours. Treated cells were fixed with formaledehyde-containing buffer and the DNA and microtubule cytoskeleton were visualized with Hoechst and FITC-labled anti-tubulin antibody, respectively. The number of binucleated cells was determined by manual counting of at least 200 cells per concentration.

Kif4 = target: T2, Kif4 (Homo sapiens, UniProt O95239); test: Malachite-green in vitro microtubule-stimulated ATPase assay (specificity); type: biochemical; details: Fig. 2
T2 sequence (O95239 1-1232): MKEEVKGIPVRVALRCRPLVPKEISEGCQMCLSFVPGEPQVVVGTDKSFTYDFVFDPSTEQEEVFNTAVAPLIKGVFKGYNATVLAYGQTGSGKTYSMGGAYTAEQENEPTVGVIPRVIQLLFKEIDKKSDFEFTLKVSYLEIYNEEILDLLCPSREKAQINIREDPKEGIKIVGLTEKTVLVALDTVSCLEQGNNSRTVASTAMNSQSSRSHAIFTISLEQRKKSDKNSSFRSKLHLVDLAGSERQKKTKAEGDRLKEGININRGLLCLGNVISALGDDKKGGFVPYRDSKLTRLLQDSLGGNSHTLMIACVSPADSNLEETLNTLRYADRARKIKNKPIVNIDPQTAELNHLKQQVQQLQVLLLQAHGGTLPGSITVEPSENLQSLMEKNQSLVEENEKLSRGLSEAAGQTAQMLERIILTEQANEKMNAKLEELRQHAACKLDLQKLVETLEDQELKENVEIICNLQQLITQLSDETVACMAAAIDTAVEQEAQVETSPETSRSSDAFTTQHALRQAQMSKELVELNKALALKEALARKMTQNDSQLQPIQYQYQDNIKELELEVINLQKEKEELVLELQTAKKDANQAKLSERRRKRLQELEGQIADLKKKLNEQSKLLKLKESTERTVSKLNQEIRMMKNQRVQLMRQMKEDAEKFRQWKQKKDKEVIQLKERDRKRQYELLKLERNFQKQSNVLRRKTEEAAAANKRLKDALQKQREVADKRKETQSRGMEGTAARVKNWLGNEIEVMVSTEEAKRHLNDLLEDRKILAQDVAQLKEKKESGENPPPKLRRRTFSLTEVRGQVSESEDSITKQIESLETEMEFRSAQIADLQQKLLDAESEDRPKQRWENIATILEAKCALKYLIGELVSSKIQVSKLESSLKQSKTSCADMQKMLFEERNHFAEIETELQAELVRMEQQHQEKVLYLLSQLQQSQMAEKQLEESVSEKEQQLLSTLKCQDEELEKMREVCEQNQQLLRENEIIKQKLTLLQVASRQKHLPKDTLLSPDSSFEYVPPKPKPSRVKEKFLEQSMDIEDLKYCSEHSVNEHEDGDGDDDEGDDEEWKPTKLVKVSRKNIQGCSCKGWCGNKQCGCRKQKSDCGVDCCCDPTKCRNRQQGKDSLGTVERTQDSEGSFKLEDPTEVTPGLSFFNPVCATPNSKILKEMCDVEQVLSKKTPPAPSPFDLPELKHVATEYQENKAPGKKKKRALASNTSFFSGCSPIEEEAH
Protocol: (§1) The specificity of 5-chloro-2-(3,4-dichlorophenyl)-7-(trifluoromethyl)quinoxaline was determined by measuring its effect on the microtubule-stimulated in vitro ATPase activities of the kinesins Eg5, Kif4, Mklp1, and Mklp2.

Eg5 = target: T3, Eg5 (Homo sapiens, UniProt P52732); test: as above; type: biochemical; details: Fig. 2
T3 sequence (P52732 1-1056): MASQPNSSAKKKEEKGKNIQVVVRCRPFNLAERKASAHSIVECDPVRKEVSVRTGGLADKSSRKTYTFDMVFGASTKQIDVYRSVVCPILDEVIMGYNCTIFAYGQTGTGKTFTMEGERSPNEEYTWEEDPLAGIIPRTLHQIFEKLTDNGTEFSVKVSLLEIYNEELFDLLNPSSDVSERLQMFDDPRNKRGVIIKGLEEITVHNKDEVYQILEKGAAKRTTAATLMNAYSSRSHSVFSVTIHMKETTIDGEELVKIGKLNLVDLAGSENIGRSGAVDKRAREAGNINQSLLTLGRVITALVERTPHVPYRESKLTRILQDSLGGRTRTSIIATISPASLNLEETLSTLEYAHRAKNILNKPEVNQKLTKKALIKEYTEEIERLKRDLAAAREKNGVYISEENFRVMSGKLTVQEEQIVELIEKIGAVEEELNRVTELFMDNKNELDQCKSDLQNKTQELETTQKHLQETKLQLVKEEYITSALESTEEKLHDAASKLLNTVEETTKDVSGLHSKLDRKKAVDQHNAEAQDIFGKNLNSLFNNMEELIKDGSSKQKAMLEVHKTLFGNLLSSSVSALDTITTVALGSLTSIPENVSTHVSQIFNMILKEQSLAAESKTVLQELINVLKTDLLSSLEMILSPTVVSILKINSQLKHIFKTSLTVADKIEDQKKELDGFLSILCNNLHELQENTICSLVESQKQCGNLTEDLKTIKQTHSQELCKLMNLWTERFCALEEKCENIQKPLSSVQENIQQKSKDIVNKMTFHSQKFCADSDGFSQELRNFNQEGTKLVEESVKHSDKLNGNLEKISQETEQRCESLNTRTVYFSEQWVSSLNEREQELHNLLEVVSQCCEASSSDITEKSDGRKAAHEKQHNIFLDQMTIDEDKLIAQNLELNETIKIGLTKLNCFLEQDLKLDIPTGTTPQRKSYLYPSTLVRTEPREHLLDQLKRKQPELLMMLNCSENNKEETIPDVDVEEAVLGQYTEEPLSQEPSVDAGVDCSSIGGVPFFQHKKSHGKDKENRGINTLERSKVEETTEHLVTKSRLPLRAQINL
Protocol: as §1

Mklp2 = target: T4, Mklp2 (Homo sapiens, UniProt O95235); test: as above; type: biochemical; details: Fig. 2
T4 sequence (O95235 1-890): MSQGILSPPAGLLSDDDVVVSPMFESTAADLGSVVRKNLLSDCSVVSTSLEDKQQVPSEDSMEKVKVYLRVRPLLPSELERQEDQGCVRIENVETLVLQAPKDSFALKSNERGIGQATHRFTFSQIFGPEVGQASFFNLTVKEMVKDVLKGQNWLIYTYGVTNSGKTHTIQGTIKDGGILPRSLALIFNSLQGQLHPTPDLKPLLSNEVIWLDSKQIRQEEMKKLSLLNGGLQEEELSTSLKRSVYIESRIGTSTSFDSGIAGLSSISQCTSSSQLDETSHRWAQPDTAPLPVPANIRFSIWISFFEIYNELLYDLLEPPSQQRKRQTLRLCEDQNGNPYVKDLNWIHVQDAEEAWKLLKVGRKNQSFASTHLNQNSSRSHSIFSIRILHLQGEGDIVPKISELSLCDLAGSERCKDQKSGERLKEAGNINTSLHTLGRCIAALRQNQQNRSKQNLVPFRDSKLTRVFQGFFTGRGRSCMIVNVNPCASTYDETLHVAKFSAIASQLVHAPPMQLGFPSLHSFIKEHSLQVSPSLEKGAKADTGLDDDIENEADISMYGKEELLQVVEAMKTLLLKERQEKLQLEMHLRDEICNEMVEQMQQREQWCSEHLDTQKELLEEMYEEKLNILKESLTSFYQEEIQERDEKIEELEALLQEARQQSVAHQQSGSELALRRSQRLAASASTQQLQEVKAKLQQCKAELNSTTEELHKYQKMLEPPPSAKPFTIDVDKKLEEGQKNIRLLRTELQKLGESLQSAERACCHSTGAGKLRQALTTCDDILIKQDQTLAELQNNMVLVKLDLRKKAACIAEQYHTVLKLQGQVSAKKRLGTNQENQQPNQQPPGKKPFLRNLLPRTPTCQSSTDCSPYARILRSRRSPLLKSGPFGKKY
Protocol: as §1

Mklp1 = target: T5, Mklp1 (Homo sapiens, UniProt Q02241); test: as above; type: biochemical; details: Fig. 2
T5 sequence (Q02241 1-960): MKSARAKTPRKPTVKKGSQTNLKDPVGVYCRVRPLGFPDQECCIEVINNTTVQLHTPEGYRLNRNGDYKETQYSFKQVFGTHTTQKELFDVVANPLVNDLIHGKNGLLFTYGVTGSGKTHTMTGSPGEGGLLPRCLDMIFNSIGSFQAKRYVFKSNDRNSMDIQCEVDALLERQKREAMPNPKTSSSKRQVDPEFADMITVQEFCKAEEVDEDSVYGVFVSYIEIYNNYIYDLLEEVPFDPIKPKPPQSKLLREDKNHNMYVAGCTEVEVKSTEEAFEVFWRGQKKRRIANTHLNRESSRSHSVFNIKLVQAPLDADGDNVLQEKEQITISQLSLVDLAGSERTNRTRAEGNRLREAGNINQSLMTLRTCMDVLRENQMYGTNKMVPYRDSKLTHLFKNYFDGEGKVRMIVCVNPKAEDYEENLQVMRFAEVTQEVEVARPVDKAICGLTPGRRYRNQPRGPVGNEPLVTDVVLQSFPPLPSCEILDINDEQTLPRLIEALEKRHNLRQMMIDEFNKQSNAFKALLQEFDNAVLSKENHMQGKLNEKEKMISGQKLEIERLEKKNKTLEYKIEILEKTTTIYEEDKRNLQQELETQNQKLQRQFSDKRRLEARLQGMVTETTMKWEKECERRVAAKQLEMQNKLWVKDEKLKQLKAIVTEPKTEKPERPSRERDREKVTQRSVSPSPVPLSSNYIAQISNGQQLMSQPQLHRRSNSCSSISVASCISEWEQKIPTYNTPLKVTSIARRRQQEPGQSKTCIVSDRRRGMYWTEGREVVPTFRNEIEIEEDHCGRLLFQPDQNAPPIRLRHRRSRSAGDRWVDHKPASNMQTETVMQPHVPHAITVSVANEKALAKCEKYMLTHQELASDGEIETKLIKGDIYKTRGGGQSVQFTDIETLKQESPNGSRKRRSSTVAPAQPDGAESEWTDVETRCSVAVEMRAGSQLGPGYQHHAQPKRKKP
Protocol: as §1

IC50 [2]: ~40 µM
EC50 [3]: ~50 µM
effect on the in vitro ATPase activity of Kif4 (Kif4): no significant effect
effect on the in vitro ATPase activity of Eg5 (Eg5): no significant effect
effect on the in vitro ATPase activity of Mklp2 (Mklp2): no significant effect
effect on the in vitro ATPase activity of Mklp1 (Mklp1): no significant effect
Compound: FC(F)(F)c1cc(Cl)c2ncc(-c3ccc(Cl)c(Cl)c3)nc2c1 [5-chloro-2-(3,4-dichlorophenyl)-7-(trifluoromethyl)quinoxaline]
binucleate phenotype in Hela S3 cells (Hela S3 cells): induces a binucleate phenotype
effect on the tested cellular processes [1]: no observable effect
